In patent publication US6274715A, “Tricyclic erythromycin derivatives” (priority 1997, dated 2001):
≈ marks a conversion by molar mass, not a printed value.

Assays:
Assay type in all cases: cell-based
ESCHERICHIA COLI KNK 437 = details: E. coli KNK 437; BHI agar; unit assumed
[1] = tested on: STAPHYLOCOCCUS AUREUS ATCC 6538P; assay: In vitro antibacterial activity, MIC, BHI agar dilution; details: S. aureus ATCC 6538P, 35-37° C., 20 to 24 hours, unit assumed
[2] = tested on: STAPHYLOCOCCUS AUREUS CMX 642A; assay: as above; details: S. aureus CMX 642A, unit assumed
[3] = tested on: STREPTOCOCCUS PYOGENES EES61; assay: as above; details: S. pyogenes EES61, unit assumed
[4] = tested on: KLEBSIELLA PNEUMONIAE ATCC 8045; assay: as above; details: K. pneumoniae ATCC 8045, unit assumed
[5] = tested on: STREPTOCOCCUS PYOGENES 930; assay: as above; details: S. pyogenes 930, unit assumed
[6] = tested on: ENTEROBACTER AEROGENES ATCC 13048; assay: as above; details: E. aerogenes ATCC 13048, unit assumed
[7] = tested on: PSEUDOMONAS AERUGINOSA K799/WT; assay: as above; details: P. aeruginosa K799/WT, unit assumed
[8] = tested on: STAPHYLOCOCCUS AUREUS NCTC10649M; assay: as above; details: S. aureus NCTC10649M, unit assumed
[9] = tested on: STREPTOCOCCUS BOVIS A-5169; assay: as above; details: S. bovis A-5169, unit assumed
ESCHERICHIA COLI H560 = assay: as above; details: E. coli H560, unit assumed
[10] = tested on: STAPHYLOCOCCUS AUREUS A5177; assay: as above; details: S. aureus A5177, unit assumed
[11] = tested on: PSEUDOMONAS AERUGINOSA BMH10; assay: as above; details: P. aeruginosa BMH10, unit assumed
[12] = tested on: PSEUDOMONAS AERUGINOSA 5007; assay: as above; details: P. aeruginosa 5007, unit assumed
[13] = tested on: STAPHYLOCOCCUS EPIDERMIDIS 3519; details: S. epidermidis 3519; BHI agar; unit assumed
ESCHERICHIA COLI JUHL = details: E. coli JUHL; BHI agar; unit assumed
[14] = tested on: STAPHYLOCOCCUS AUREUS 1775; assay: In vitro antibacterial activity, MIC, BHI agar dilution; details: S. aureus 1775, unit assumed
ESCHERICHIA COLI DC-2 = assay: as above; details: E. coli DC-2, unit assumed
[15] = tested on: STAPHYLOCOCCUS AUREUS CMX 553; assay: as above; details: S. aureus CMX 553, unit assumed
[16] = tested on: PSEUDOMONAS AERUGINOSA DPHD-2862; assay: as above; details: P. aeruginosa DPHD-2862, unit assumed
STR[…] 508 = assay: as above; details: S. agalactiae CMX 508, unit assumed
How it was run: (§1)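 BHI agar dilution: twelve plates with successive compound dilutions, inoculated by replicator with 1:100 culture dilutions (1:10 for slow growers such as Micrococcus and Streptococcus), 20 to 24 hours at 35-37° C. MIC was the lowest concentration giving no growth, slight haze or sparse isolated colonies versus drug-free control; erythromycin A as class reference.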

M[…] ATCC 9341 = assay: as above; details: M. luteus ATCC 9341, unit assumed
How it was run: as §1

EN[…] ATCC 8043 = assay: as above; details: E. faecium ATCC 8043, unit assumed
How it was run: as §1

M[…] ATCC 4698 = assay: as above; details: M. luteus ATCC 4698, unit assumed
How it was run: as §1

[17] = tested on: PROVIDENCIA STUARTII CMX 640; details: P. stuartii CMX 640; BHI agar; unit assumed
[18] = tested on: PSEUDOMONAS AERUGINOSA K799/61; assay: In vitro antibacterial activity, MIC, BHI agar dilution; details: P. aeruginosa K799/61, unit assumed
CANDIDA ALBICANS CCH 442 = assay: as above; details: C. albicans CCH 442, unit assumed
[19] = tested on: STAPHYLOCOCCUS AUREUS A-5278; assay: as above; details: S. aureus A-5278, unit assumed
[20] = tested on: PSEUDOMONAS AERUGINOSA DPHD-5263; assay: as above; details: P. aeruginosa DPHD-5263, unit assumed
ESCHERICHIA COLI SS = assay: as above; details: E. coli SS, unit assumed
[21] = tested on: ACINETOBACTER CALCOACETICUS CMX 669; assay: as above; details: A. calcoaceticus CMX 669, unit assumed
PSEUDOMONAS CEPACIA 296I = assay: as above; details: P. cepacia 296I, unit assumed
[22] = tested on: STREPTOCOCCUS PYOGENES PIU 2548; assay: as above; details: S. pyogenes PIU 2548, unit assumed
[23] = tested on: MYCOBACTERIUM SMEGMATIS ATCC 114; assay: as above; details: M. smegmatis ATCC 114, unit assumed

Structure (SMILES) | MIC (ESCHERICHIA COLI KNK 437) | MIC [1] | MIC [2] | MIC [3] | MIC [4] | MIC [5] | MIC [6] | MIC [7] | MIC [8] | MIC [9] | MIC (ESCHERICHIA COLI H560) | MIC [10] | MIC [11] | MIC [12] | MIC [13] | MIC (ESCHERICHIA COLI JUHL) | MIC [14] | MIC (ESCHERICHIA COLI DC-2) | MIC [15] | MIC [16] | other results
CC[C@H]1OC(=O)[C@H](C)C(=O)[C@H](C)[C@@H](O[C@@H]2O[C@H](C)C[C@H](N(C)C)[C@H]2O)[C@](C)(OC)C[C@@H](C)C2=N[C@@H]3CN(Cc4ccc(Cl)cc4)C[C@@H]3N3C(=O)O[C@@]1(C)[C@H]3[C@H]2C [Example 24] | > 100 µg/mL | 0.78 µg/mL (≈ 0.971 µM) | 0.78 µg/mL (≈ 0.971 µM) | 0.05 µg/mL (≈ 0.0622 µM) | > 100 µg/mL | 100 µg/mL (≈ 124 µM) | > 100 µg/mL | > 100 µg/mL | 0.78 µg/mL (≈ 0.971 µM) | 0.05 µg/mL (≈ 0.0622 µM) | > 100 µg/mL | 0.78 µg/mL (≈ 0.971 µM) | > 100 µg/mL | > 100 µg/mL | 0.78 µg/mL (≈ 0.971 µM) | > 100 µg/mL | > 100 µg/mL | > 100 µg/mL | 0.78 µg/mL (≈ 0.971 µM) | > 100 µg/mL | MIC (STR[…] 508): 0.2 µg/mL (≈ 0.249 µM); MIC (M[…] ATCC 9341): 0.2 µg/mL (≈ 0.249 µM); MIC (EN[…] ATCC 8043): 0.2 µg/mL (≈ 0.249 µM); MIC (M[…] ATCC 4698): 0.78 µg/mL (≈ 0.971 µM); MIC [17]: > 100 µg/mL; MIC [18]: 6.2 µg/mL (≈ 7.72 µM); MIC (CANDIDA ALBICANS CCH 442): > 100 µg/mL; MIC [19]: > 100 µg/mL; MIC [20]: > 100 µg/mL; MIC (ESCHERICHIA COLI SS): 6.2 µg/mL (≈ 7.72 µM); MIC [21]: > 100 µg/mL; MIC (PSEUDOMONAS CEPACIA 296I): > 100 µg/mL; MIC [22]: 0.78 µg/mL (≈ 0.971 µM); MIC [23]: 1.56 µg/mL (≈ 1.94 µM)
CC[C@H]1OC(=O)[C@H](C)C(=O)[C@H](C)[C@@H](O[C@@H]2O[C@H](C)C[C@H](N(C)C)[C@H]2O)[C@](C)(OC)C[C@@H](C)C2=N[C@@H]3CN(Cc4ccncc4)C[C@@H]3N3C(=O)O[C@@]1(C)[C@H]3[C@H]2C [Example 25] | > 100 µg/mL | 0.78 µg/mL (≈ 1.01 µM) | 0.78 µg/mL (≈ 1.01 µM) | 0.05 µg/mL (≈ 0.0649 µM) | > 100 µg/mL | > 100 µg/mL | > 100 µg/mL | 100 µg/mL (≈ 130 µM) | 0.39 µg/mL (≈ 0.507 µM) | 0.1 µg/mL (≈ 0.13 µM) | 100 µg/mL (≈ 130 µM) | 0.78 µg/mL (≈ 1.01 µM) | > 100 µg/mL | > 100 µg/mL | 0.78 µg/mL (≈ 1.01 µM) | > 100 µg/mL | > 100 µg/mL | > 100 µg/mL | 0.78 µg/mL (≈ 1.01 µM) | > 100 µg/mL | MIC (STR[…] 508): 0.1 µg/mL (≈ 0.13 µM); MIC (M[…] ATCC 9341): 0.1 µg/mL (≈ 0.13 µM); MIC (EN[…] ATCC 8043): 0.1 µg/mL (≈ 0.13 µM); MIC (M[…] ATCC 4698): 0.39 µg/mL (≈ 0.507 µM); MIC [17]: > 100 µg/mL; MIC [18]: 0.78 µg/mL (≈ 1.01 µM); MIC (CANDIDA ALBICANS CCH 442): > 100 µg/mL; MIC [19]: > 100 µg/mL; MIC [20]: > 100 µg/mL; MIC (ESCHERICHIA COLI SS): 0.78 µg/mL (≈ 1.01 µM); MIC [21]: 100 µg/mL (≈ 130 µM); MIC (PSEUDOMONAS CEPACIA 296I): > 100 µg/mL; MIC [22]: 0.78 µg/mL (≈ 1.01 µM); MIC [23]: 3.1 µg/mL (≈ 4.03 µM)
CC[C@H]1OC(=O)[C@H](C)C(=O)[C@H](C)[C@@H](O[C@@H]2O[C@H](C)C[C@H](N(C)C)[C@H]2O)[C@](C)(OC)C[C@@H](C)C2=NC[C@@H](COCc3ccccc3)N3C(=O)O[C@@]1(C)[C@H]3[C@H]2C [Example 37] | 25 µg/mL (≈ 33 µM) | 0.1 µg/mL (≈ 0.132 µM) | 0.1 µg/mL (≈ 0.132 µM) | ≤ 0.005 µg/mL | 50 µg/mL (≈ 66 µM) | 100 µg/mL (≈ 132 µM) | 50 µg/mL (≈ 66 µM) | > 100 µg/mL | 0.1 µg/mL (≈ 0.132 µM) | ≤ 0.005 µg/mL | 25 µg/mL (≈ 33 µM) | 0.1 µg/mL (≈ 0.132 µM) | 50 µg/mL (≈ 66 µM) | > 100 µg/mL | 0.1 µg/mL (≈ 0.132 µM) | 50 µg/mL (≈ 66 µM) | > 100 µg/mL | 25 µg/mL (≈ 33 µM) | 0.1 µg/mL (≈ 0.132 µM) | > 100 µg/mL | MIC (STR[…] 508): 0.02 µg/mL (≈ 0.0264 µM); MIC (M[…] ATCC 9341): 0.01 µg/mL (≈ 0.0132 µM); MIC (EN[…] ATCC 8043): 0.05 µg/mL (≈ 0.066 µM); MIC (M[…] ATCC 4698): 0.2 µg/mL (≈ 0.264 µM); MIC [17]: > 100 µg/mL; MIC [18]: 0.78 µg/mL (≈ 1.03 µM); MIC (CANDIDA ALBICANS CCH 442): > 100 µg/mL; MIC [19]: > 100 µg/mL; MIC [20]: > 100 µg/mL; MIC (ESCHERICHIA COLI SS): 0.39 µg/mL (≈ 0.515 µM); MIC [21]: 25 µg/mL (≈ 33 µM); MIC (PSEUDOMONAS CEPACIA 296I): 100 µg/mL (≈ 132 µM); MIC [22]: 0.39 µg/mL (≈ 0.515 µM); MIC [23]: 0.39 µg/mL (≈ 0.515 µM)
CC[C@H]1OC(=O)[C@H](C)C(=O)[C@H](C)[C@@H](O[C@@H]2O[C@H](C)C[C@H](N(C)C)[C@H]2O)[C@](C)(OC)C[C@@H](C)C2=N[C@H](CN(C)Cc3ccccc3)CN3C(=O)O[C@@]1(C)[C@H]3[C@H]2C [Example 58] | > 100 µg/mL | 0.78 µg/mL (≈ 1.01 µM) | 0.78 µg/mL (≈ 1.01 µM) | 0.01 µg/mL (≈ 0.013 µM) | > 100 µg/mL | > 100 µg/mL | > 100 µg/mL | > 100 µg/mL | 0.78 µg/mL (≈ 1.01 µM) | 0.01 µg/mL (≈ 0.013 µM) | 50 µg/mL (≈ 64.9 µM) | 0.78 µg/mL (≈ 1.01 µM) | > 100 µg/mL | > 100 µg/mL | 0.78 µg/mL (≈ 1.01 µM) | > 100 µg/mL | > 100 µg/mL | > 100 µg/mL | 0.78 µg/mL (≈ 1.01 µM) | > 100 µg/mL | MIC (STR[…] 508): 0.02 µg/mL (≈ 0.0259 µM); MIC (M[…] ATCC 9341): 0.1 µg/mL (≈ 0.13 µM); MIC (EN[…] ATCC 8043): 0.2 µg/mL (≈ 0.259 µM); MIC (M[…] ATCC 4698): 0.39 µg/mL (≈ 0.506 µM); MIC [17]: > 100 µg/mL; MIC [18]: 3.1 µg/mL (≈ 4.02 µM); MIC (CANDIDA ALBICANS CCH 442): > 100 µg/mL; MIC [19]: > 100 µg/mL; MIC [20]: > 100 µg/mL; MIC (ESCHERICHIA COLI SS): 0.39 µg/mL (≈ 0.506 µM); MIC [21]: > 100 µg/mL; MIC (PSEUDOMONAS CEPACIA 296I): > 100 µg/mL; MIC [22]: 0.39 µg/mL (≈ 0.506 µM); MIC [23]: 3.1 µg/mL (≈ 4.02 µM)
